Results published in patent US5132432A, “Chemically reactive pyrenyloxy sulfonic acid dyes” (Molecular Probes, Inc., priority 1989, dated 1992).
Structures can show the parent of a compound that is named as a salt.

Assays:
[1] = Spectral properties (absorption/emission) of new pyrenyloxy sulfonic acid dyes, Table 4; format: physicochemical; details: 50 mM aqueous potassium phosphate buffer at pH 8.0; for Em Max: uncorrected
Method: Stock solutions were prepared by accurately weighing and dissolving 5-10 mg samples of the compounds in 2.000 ml water. A 10 μl aliquot of the stock solution was diluted into 2.00 ml of 50 mM potassium phosphate buffer at pH 8.0. Absorbance solutions were prepared by further diluting 200 μl of the diluted stock solution to 2.000 ml with 50 mM potassium phosphate buffer at pH 8.0. Absorption data was collected on an IBM Model 9420 UV/Visible Spectrophotometer and extinction coefficients were determined by standard Beer's Law calculations.
Uncorrected fluorescence data was obtained on a Perkin-Elmer Model 650-40 Fluorescence Spectrophotometer equipped with a Perkin-Elmer/Hitachi 057 X-Y Recorder using a ten- to twentyfold dilution of the absorbance solutions. Fluorescence of the pyrenyloxy sulfonic acid dyes was determined for the reactive dyes and for their conjugates with model compounds by dissolving the dye at a concentration above 1×10^-8M in an appropriate solvent such as water, methanol, ethanol, or dimethylsulfoxide and measurement of the fluorescence in a suitable instrument, such as a fluorescence spectrometer or fluorescence microscope or flow cytometer. Fluorescence could also be observed for the dyes in solution by visual inspection with illumination by a suitable source that emits light at wavelengths of less than 420 nm.

[2] = Quantum yield relative to quinine sulfate; format: physicochemical; details: in water
Source text: An estimate of the quantum yield of the dyes relative to quinine sulfate (quantum yield=0.55 in 1N sulfuric acid) was obtained by integrating the emission spectrum of the dye excited at the same wavelength and optical density as the standard.

[3] = Comparison of spectral properties of reactive dyes, Table 1; format: physicochemical; details: for ε: at first maximum; for Abs Max: first maximum; for Emission Bandwidth / Emission Bandwidth [cm^-1]: full bandwidth at half peak height; for Quantum Yield: in aqueous solution, grade in words; for % Emission at 514 nm: percent of maximum emission at 514 nm
Source text: A number of dyes have been proposed in the literature that can be excited and detected at wavelengths less than 500 nm. Several chemically reactive fluorophores that can be excited in the near ultraviolet and short wavelength visible region of the spectrum have been described. […] These proposed tracers are derived from naphthalene derivatives such as 5-dimethylaminonaphthalene-1-sulfonic acid (Dansyl) [Weber, Biochem. J. 41:145 (1952); Rinderknecht, Experientin 16:430 (1960)], 3-(isothiocyanato)naphthalene-1,5-disulfonic acid [Braunitzer, et al., Hoppe-Seyler's Z. Physiol. […] Chem. 358:505 (1977)], pyrene derivatives such as pyrene-1-butyric acid (PBA) [Malencik & Anderson, Biochemistry 11:3022 (1972)], 8-isothiocyanatopyrene-1,3,6-trisulfonic acid (IPTS) [Braunitzer,et al., Hoppe-Seyler's Z. Physiol. Chem. 354:1536 (1973)] and 8-hydroxypyrene-1,3,6-trisulfonyl chloride [Wolfbeis, Fresenies Z. Anal. Chem. 320:271 (1985)], stilbene derivatives such as 4-acetamido-4'-isothiocyanatostilbene-2,2'-disulfonic acid (SITS) [Cornelisse & Ploem, J. Histochem. Cytochem. 24:72 (1976)], and coumarin dyes such as 3-carboxy-7-hydroxycoumarin [Baker & Collis, J. Chem. Soc. 1949, S 12 (1949)], 7-hydroxy-4-methylumbelliferone-3-acetic acid (4-MUA) [Khalfan, et al., Biochem. J. 209:265 (1983)], 7-amino-4-methylcoumarin-3-acetic acid (AMCA) [Khalfan, et al., Histochem. J. 18:497 (1986)] and 7-diethylaminocoumarin [Staines, et al. (1988)].

[4] = Solubility in water / aqueous solution; details: solubility of the reactive form of the dye; grade in words
[5] = background statement; cited from earlier work
[6] = first (longer-wavelength) maximum
[7] = second (shorter-wavelength) maximum

N.N.N.NNC(=O)COc1cc(S(=O)(=O)O)c2ccc3c(S(=O)(=O)O)cc(S(=O)(=O)O)c4ccc1c2c43 [Compound 13, 1,3,6-Trisulfo-8-pyrenyloxyacethydrazide, triammonium salt]
Emission Band-width [1]: 50 nm
Emission at 514 nm [1]: 3.8 % of max
Abs Max [1, 6]: 399 nm
Abs Max [1, 7]: 376 nm

NCCCCCNC(=O)COc1cc(S(=O)(=O)O)c2ccc3c(S(=O)(=O)O)cc(S(=O)(=O)O)c4ccc1c2c43 [Compound 4, 1-(1,3,6-Trisulfo-8-pyrenloxyacetamido)-(5-aminopentane), trisodium salt]
Emission Band-width [1]: 50 nm
Emission at 514 nm [1]: 3.9 % of max
Em Max [1]: 422 nm
ε ([1]; at first maximum): 27.6 10^3 M^-1 cm^-1
ε ([1]; at second maximum): 22.8 10^3 M^-1 cm^-1
Abs Max [1, 7]: 377 nm
Quantum Yield [2]: greater than 0.90

COC(=O)COc1cc(OCC(=O)OC)c2ccc3c(S(=O)(=O)O)cc(S(=O)(=O)O)c4ccc1c2c43 [Compound 21, Dimethyl 1,3-disulfo-6-carboxymethoxy-8-pyrenyloxyacetic acid, disodium salt]
Emission Band-width [1]: 55 nm
Emission at 514 nm [1]: 13.0 % of max
Em Max [1]: 447 nm
ε ([1]; at first maximum): 24.5 10^3 M^-1 cm^-1
Abs Max [1, 6]: 396 nm

N#CCCCCCNC(=O)COc1cc(S(=O)(=O)O)c2ccc3c(S(=O)(=O)O)cc(S(=O)(=O)O)c4ccc1c2c43 [Compound 16]
Emission Band-width [1]: 49 nm
Emission at 514 nm [1]: 3.0 % of max
Abs Max [1, 6]: 399 nm
Abs Max [1, 7]: 377 nm

O=S(=O)(O)c1cc(N=C=S)c2ccc3c(S(=O)(=O)O)cc(S(=O)(=O)O)c4ccc1c2c34 [IPTS, 8-isothiocyanatopyrene-1,3,6-trisulfonic acid]
Em. Max. [3]: 458 nm
ε [3]: 25600 M⁻¹ cm⁻¹
Abs Max [3]: 373 nm
Emission Bandwidth [3]: 78 nm
Emission Bandwidth [cm^-1] [3]: 3634 cm⁻¹
Quantum Yield [3]: low
% Emission at 514 nm [3]: 38 % of max
Water Solubility [4]: high

O=C(CCCc1ccc2ccc3cccc4ccc1c2c34)ON1C(=O)CCC1=O [succinimidyl pyrene-1-butyrate]
aqueous solubility / lipophilicity [5]: quite lipophilic and insoluble in the aqueous solutions

Cc1c(CC(=O)ON2C(=O)CCC2=O)c(=O)oc2cc(N)ccc12 [succinimidyl ester of AMCA]
aqueous solubility / lipophilicity [5]: quite lipophilic and insoluble in the aqueous solutions

O=C(O)CCCc1ccc2ccc3cccc4ccc1c2c34 [PBA, pyrene-1-butyric acid]
Em. Max. [3]: 377 nm
ε [3]: 45100 M⁻¹ cm⁻¹
Abs Max [3]: 341 nm
Quantum Yield [3]: low
% Emission at 514 nm [3]: 2 % of max
Water Solubility [4]: low

CC(C)(C)OC(=O)N1CCC[C@H]1C(=O)NCCCCCNC(=O)COc1cc(S(=O)(=O)O)c2ccc3c(S(=O)(=O)O)cc(S(=O)(=O)O)c4ccc1c2c43 [Compound 15]
Emission Band-width [1]: 50 nm
Emission at 514 nm [1]: 3.0 % of max
Abs Max [1, 6]: 399 nm
Abs Max [1, 7]: 377 nm

Cc1c(CC(=O)O)c(=O)oc2cc(N)ccc12 [AMCA, 7-amino-4-methylcoumarin-3-acetic acid]
Em. Max. [3]: 442 nm
ε [3]: 15200 M⁻¹ cm⁻¹
Abs Max [3]: 354 nm
Emission Bandwidth [3]: 57 nm
Emission Bandwidth [cm^-1] [3]: 2858 cm⁻¹
Quantum Yield [3]: med.
% Emission at 514 nm [3]: 12 % of max
Water Solubility [4]: low

NCCNC(=O)COc1cc(S(=O)(=O)O)c2ccc3c(S(=O)(=O)O)cc(S(=O)(=O)O)c4ccc1c2c43 [Compound 3, 1,3,6-Trisulfo-8-pyrenyloxyacetamido-1-(2-aminoethane), trisodium salt]
Emission Band-width [1]: 50 nm
Emission at 514 nm [1]: 4.9 % of max
Abs Max [1, 6]: 399 nm

[N-]=[N+]=Nc1ccc(C(=O)NCCCCCNC(=O)COc2cc(S(=O)(=O)[O-])c3ccc4c(S(=O)(=O)[O-])cc(S(=O)(=O)[O-])c5ccc2c3c54)cc1.[Na+].[Na+].[Na+] [Compound 20, N-(1,3,6-Trisulfo-8-pyrenyloxyacetyl)-N'-(4-azidobenzoyl)-1,5-pentanediamine, trisodium salt]
Emission Band-width [1]: 50 nm
Emission at 514 nm [1]: 3.5 % of max
Em Max [1]: 424 nm
Abs Max [1, 6]: 400 nm

NNC(=O)COc1cc(S(=O)(=O)O)c2ccc3c(S(=O)(=O)O)cc(S(=O)(=O)O)c4ccc1c2c43 [Compound 11, 1,3,6-Trisulfo-8-pyrenyloxyacethydrazide, free sulfonic acid]
Emission Band-width [1]: 51 nm
Abs Max [1, 6]: 399 nm
Abs Max [1, 7]: 377 nm

CN(C)c1cccc2c(S(=O)(=O)O)cccc12 [Dansyl, 5-dimethylaminonaphthalene-1-sulfonic acid]
Em. Max. [3]: 578 nm
ε [3]: 4500 M⁻¹ cm⁻¹
Abs Max [3]: 340 nm
Quantum Yield [3]: low
Water Solubility [4]: low

CC(C)(C)OC(=O)N1CCC[C@H]1C(=O)NCCNC(=O)COc1cc(S(=O)(=O)[O-])c2ccc3c(S(=O)(=O)[O-])cc(S(=O)(=O)[O-])c4ccc1c2c43.[Na+].[Na+].[Na+] [Compound 14, N-(1,3,6-Trisulfo-8-pyrenyloxyacetyl)-N'-(N-t-butoxycarbonyl-L-prolyl)-1,2-ethanediamine, trisodium salt]
Emission Band-width [1]: 49 nm
Emission at 514 nm [1]: 2.8 % of max
Em Max [1]: 422 nm
Abs Max [1, 6]: 399 nm
Quantum Yield [2]: greater than 0.90

O=C(COc1cc(S(=O)(=O)O)c2ccc3c(S(=O)(=O)O)cc(S(=O)(=O)O)c4ccc1c2c43)NCCO [Compound 10]
Emission Band-width [1]: 50 nm
Emission at 514 nm [1]: 3.3 % of max
Abs Max [1, 6]: 399 nm
Abs Max [1, 7]: 377 nm

C=CC(=O)NCCCCCNC(=O)COc1cc(S(=O)(=O)O)c2ccc3c(S(=O)(=O)O)cc(S(=O)(=O)O)c4ccc1c2c43 [Compound 19]
Emission Band-width [1]: 49 nm
Emission at 514 nm [1]: 2.9 % of max
Abs Max [1, 6]: 399 nm

O=C(O)COc1cc(S(=O)(=O)[O-])c2ccc3c(S(=O)(=O)[O-])cc(S(=O)(=O)[O-])c4ccc1c2c43.[Na+].[Na+].[Na+] [Compound 2, 1,3,6-Trisulfo-8-pyrenyloxyacetic acid, trisodium salt]
Emission Band-width [1]: 52 nm
Emission at 514 nm [1]: 5.8 % of max
Em Max [1]: 430 nm
ε ([1]; at first maximum): 27.0 10^3 M^-1 cm^-1
ε ([1]; at second maximum): 19.8 10^3 M^-1 cm^-1
Abs Max [1, 7]: 374 nm
Quantum Yield [2]: greater than 0.90
